How the values were obtained:
[1] = Cytotoxicity against human SKBR3 cells after 5 days by SRB assay; format: functional; conditions: SK-BR-3, 120 h
MCF7 = assay: Cytotoxicity against human MCF7 cells after 5 days by SRB assay; format: functional; conditions: MCF7, 120 h
MDA-MB-468 = assay: Cytotoxicity against human MDA-MB-468 cells after 5 days by SRB assay; format: functional; conditions: MDA-MB-468, 120 h
MDA-MB-231 = assay: Cytotoxicity against human MDA-MB-231 cells after 5 days by SRB assay; format: functional; conditions: MDA-MB-231, 120 h
[2] = target: Vascular endothelial growth factor receptor 2 (Homo sapiens, UniProt P35968); assay: Inhibition of KDR (unknown origin) by FRET-based homogeneous assay
[3] = Cmax in SCID mouse at 25 mg/kg, po by LCMS/MS method; format: ADME, organism-based; set-up: dose 25 mg/kg, route oral; conditions: in vivo
Cytochrome P450 2C9 = Cytochrome P450 2C9 (Homo sapiens, UniProt P11712); assay: Inhibition of CYP2C9 (unknown origin) using MFC substrate after 45 mins by fluorescence assay; format: ADME
Cytochrome P450 1A2 = target: T1, Cytochrome P450 1A2 (Homo sapiens, UniProt P05177); assay: Inhibition of CYP1A2 (unknown origin) using CEC substrate after 15 mins by fluorescence assay; format: ADME
T1 sequence (P05177 whole entry): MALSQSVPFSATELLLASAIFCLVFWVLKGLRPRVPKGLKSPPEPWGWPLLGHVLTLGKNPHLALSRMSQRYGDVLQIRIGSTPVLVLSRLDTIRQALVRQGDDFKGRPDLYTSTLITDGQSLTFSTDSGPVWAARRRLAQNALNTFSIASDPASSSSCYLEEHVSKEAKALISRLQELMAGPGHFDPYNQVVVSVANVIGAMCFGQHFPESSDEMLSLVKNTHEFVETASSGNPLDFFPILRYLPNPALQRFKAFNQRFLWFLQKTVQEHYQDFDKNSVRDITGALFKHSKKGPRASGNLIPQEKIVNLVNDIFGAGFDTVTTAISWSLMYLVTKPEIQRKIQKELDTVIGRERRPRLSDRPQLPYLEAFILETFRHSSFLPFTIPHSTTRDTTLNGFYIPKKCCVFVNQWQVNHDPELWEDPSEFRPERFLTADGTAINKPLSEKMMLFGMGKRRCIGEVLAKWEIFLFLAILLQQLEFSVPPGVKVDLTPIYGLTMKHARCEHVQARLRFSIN

[4] = AUC in SCID mouse at 25 mg/kg, po by LCMS/MS method; format: ADME, organism-based; set-up: dose 25 mg/kg, route oral; conditions: plasma
Cytochrome P450 2C19 = Cytochrome P450 2C19 (Homo sapiens, UniProt P33261); assay: Inhibition of CYP2C19 (unknown origin) using MFC substrate after 30 mins by fluorescence assay; format: ADME
Cytochrome P450 3A4 = Cytochrome P450 3A4 (Homo sapiens, UniProt P08684); assay: Inhibition of CYP3A4 (unknown origin) using BFC substrate after 30 mins by fluorescence assay; format: ADME
Cytochrome P450 2D6 = Cytochrome P450 2D6 (Homo sapiens, UniProt P10635); assay: Inhibition of CYP2D6 (unknown origin) using AMMC substrate after 45 mins by fluorescence assay; format: ADME
[5] = target: T2, Receptor-type tyrosine-protein kinase FLT3 (Homo sapiens, UniProt P36888); assay: Inhibition of FLT3 (unknown origin) by FRET-based homogeneous assay
T2 sequence (P36888 whole entry): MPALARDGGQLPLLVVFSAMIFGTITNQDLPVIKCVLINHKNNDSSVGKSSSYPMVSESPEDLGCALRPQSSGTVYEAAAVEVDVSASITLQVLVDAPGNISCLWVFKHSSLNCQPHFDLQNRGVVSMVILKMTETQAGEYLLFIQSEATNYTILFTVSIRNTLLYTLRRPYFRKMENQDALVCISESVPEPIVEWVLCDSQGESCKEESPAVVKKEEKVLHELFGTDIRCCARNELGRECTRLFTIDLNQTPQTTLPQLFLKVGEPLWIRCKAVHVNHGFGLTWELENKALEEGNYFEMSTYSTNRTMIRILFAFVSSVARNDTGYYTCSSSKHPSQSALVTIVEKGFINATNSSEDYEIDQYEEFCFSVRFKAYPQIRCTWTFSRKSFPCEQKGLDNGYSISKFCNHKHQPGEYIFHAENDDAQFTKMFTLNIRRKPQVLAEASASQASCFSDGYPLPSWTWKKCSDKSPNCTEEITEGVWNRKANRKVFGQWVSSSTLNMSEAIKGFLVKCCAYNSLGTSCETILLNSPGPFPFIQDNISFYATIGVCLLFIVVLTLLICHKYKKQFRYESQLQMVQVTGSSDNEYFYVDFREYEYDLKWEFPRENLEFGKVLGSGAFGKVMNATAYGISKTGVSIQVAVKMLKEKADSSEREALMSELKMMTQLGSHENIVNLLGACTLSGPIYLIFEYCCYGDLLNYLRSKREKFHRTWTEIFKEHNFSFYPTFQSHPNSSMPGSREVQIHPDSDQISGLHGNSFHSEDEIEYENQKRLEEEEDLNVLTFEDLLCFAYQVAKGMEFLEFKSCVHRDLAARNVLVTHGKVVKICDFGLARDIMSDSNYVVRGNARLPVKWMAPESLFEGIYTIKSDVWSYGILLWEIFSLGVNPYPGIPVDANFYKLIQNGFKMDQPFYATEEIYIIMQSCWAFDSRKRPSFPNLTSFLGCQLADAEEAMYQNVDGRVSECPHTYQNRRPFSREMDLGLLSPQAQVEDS

Chain of Cytochrome P450 2C19 (P33261 whole entry): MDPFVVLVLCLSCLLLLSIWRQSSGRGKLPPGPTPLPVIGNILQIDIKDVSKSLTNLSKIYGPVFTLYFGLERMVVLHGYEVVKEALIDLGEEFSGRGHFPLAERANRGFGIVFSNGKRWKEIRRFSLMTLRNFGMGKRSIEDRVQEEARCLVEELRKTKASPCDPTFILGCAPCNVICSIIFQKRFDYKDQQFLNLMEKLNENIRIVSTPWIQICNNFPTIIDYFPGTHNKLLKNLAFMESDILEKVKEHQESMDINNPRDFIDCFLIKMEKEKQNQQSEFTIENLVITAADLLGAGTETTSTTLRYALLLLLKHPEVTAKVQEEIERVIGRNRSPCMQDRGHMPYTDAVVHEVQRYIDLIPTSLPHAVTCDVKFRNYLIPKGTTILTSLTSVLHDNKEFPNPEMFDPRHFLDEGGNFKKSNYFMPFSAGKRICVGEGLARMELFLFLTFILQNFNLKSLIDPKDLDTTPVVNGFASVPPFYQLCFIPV
Chain of Cytochrome P450 3A4 (P08684 whole entry): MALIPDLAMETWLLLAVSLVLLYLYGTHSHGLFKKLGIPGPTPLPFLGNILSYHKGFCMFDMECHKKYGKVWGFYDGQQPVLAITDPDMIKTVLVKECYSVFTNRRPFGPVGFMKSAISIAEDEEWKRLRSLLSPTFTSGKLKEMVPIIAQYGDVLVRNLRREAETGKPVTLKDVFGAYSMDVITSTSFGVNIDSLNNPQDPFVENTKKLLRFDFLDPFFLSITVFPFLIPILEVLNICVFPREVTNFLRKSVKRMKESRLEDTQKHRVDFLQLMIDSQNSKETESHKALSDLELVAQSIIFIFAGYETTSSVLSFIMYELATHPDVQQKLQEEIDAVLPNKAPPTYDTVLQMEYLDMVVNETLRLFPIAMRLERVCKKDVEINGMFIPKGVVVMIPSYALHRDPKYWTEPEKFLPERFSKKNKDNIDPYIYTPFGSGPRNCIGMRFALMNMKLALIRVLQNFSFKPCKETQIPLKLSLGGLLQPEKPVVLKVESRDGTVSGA
Chain of Cytochrome P450 2D6 (P10635 whole entry): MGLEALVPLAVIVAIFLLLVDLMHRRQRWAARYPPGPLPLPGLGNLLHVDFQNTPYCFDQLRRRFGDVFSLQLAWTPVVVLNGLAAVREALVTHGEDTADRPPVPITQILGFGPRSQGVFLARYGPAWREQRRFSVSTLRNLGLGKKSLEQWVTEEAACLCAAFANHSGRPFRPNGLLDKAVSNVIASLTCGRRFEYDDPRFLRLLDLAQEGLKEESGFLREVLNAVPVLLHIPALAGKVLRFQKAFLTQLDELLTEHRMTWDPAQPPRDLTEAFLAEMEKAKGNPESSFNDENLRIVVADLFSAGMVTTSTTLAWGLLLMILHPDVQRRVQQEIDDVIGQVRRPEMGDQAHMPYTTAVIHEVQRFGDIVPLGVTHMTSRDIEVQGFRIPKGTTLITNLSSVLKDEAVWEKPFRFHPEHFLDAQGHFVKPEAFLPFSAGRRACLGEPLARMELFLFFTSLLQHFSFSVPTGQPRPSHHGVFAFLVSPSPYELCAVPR
Chain of Vascular endothelial growth factor receptor 2 (P35968 whole entry): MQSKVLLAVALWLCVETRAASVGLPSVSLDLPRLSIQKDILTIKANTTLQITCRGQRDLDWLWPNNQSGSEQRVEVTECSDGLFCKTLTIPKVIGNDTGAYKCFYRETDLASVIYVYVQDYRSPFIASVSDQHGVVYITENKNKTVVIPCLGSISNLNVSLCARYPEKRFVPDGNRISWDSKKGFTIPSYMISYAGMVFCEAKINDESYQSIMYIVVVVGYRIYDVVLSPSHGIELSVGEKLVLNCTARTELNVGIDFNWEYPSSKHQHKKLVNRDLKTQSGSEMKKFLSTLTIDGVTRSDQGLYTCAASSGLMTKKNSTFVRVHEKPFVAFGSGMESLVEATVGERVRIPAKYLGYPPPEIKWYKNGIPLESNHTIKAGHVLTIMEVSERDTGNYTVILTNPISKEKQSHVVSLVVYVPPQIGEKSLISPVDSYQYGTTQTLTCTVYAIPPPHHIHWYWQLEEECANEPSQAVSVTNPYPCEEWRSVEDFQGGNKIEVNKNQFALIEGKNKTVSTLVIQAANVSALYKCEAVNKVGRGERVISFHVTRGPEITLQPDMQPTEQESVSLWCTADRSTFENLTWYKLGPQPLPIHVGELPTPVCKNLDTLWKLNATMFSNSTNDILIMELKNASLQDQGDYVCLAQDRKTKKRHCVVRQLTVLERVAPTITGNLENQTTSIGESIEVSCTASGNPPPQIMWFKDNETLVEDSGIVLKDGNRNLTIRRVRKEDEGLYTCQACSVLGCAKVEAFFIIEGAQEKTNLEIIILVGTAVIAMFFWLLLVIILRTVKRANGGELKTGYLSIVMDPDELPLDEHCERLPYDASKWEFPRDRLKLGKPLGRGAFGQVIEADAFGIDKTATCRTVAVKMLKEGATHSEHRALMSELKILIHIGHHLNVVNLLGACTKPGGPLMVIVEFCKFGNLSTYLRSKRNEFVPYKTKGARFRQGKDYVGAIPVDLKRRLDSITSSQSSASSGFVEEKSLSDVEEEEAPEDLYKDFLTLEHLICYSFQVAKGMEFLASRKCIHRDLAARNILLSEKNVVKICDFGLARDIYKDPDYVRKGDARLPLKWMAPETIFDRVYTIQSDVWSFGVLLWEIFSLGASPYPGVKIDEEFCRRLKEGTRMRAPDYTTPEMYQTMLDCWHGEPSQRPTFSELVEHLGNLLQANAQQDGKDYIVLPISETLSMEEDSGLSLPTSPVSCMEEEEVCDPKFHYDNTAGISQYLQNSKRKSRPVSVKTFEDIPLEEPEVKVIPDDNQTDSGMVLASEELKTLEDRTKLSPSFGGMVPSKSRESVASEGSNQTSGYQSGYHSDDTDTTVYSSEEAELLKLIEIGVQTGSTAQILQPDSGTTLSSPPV
Chain of Cytochrome P450 2C9 (P11712 whole entry): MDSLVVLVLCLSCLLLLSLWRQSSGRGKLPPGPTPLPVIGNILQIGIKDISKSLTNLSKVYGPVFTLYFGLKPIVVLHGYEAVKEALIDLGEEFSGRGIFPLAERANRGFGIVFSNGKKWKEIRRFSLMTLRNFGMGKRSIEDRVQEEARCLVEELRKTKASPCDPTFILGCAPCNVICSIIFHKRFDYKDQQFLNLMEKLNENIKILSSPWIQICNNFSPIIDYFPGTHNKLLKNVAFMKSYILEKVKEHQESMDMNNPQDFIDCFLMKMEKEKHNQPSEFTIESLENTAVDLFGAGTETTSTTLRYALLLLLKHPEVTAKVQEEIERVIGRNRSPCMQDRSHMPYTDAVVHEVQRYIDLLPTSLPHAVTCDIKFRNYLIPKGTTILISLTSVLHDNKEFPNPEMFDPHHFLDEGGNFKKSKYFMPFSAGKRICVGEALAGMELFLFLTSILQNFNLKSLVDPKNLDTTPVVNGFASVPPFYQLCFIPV

Row | SMILES | GI50 [1] [nM] | GI50 (MCF7) [nM] | GI50 (MDA-MB-468) [nM] | GI50 (MDA-MB-231) [nM] | IC50 [2] [nM] | Cmax [3] [ng/mL] | IC50 (Cytochrome P450 2C9) [nM] | IC50 (Cytochrome P450 1A2) [nM] | AUC [4] [ng·h/mL] | IC50 (Cytochrome P450 2C19) [nM] | IC50 (Cytochrome P450 3A4) [nM] | IC50 (Cytochrome P450 2D6) [nM] | IC50 [5] [nM]
1 | Cc1ccc2c(c1)[C@]1(C[C@H]1c1ccc3c(/C=C/c4ccc(CN(C)C)cc4)n[nH]c3c1)C(=O)N2 (relative stereo) | 3400 | 0.01 | 0.05 | 2800 |  |  |  |  |  |  |  |  | 
2 | CN(C)Cc1ccc(/C=C/c2n[nH]c3cc([C@@H]4C[C@@]45C(=O)Nc4ccc(F)cc45)ccc23)cc1 (relative stereo) | 2200 | 100 | 10 | 550 |  |  |  |  |  |  |  |  | 
3 | CCc1ccc2c(c1)[C@]1(C[C@H]1c1ccc3c(/C=C/c4ccc(CN(C)C)cc4)n[nH]c3c1)C(=O)N2 (relative stereo) | 2000 | 240 | 10 | 2000 |  |  |  |  |  |  |  |  | 
4 | O=C1Nc2ccccc2[C@]12C[C@H]2c1ccc2c(/C=C/c3ccc(CN4CCOCC4)cc3)n[nH]c2c1 (relative stereo) | 11300 | 10 | 10 | < 10 | 1400 | 1800 | 1400 | > 10000 | 4300 | 1800 | > 1000 | > 10000 | 
5 | COc1ccc2c(c1)[C@]1(C[C@H]1c1ccc3c(/C=C/c4ccc(CN5CCOCC5)cc4)n[nH]c3c1)C(=O)N2 (relative stereo) | 13800 | < 10 | < 10 | < 10 | 24000 | 1700 | 1400 | > 10000 | 4900 | 2100 | > 1000 | > 1000 | 
6 | Cc1ccc2c(c1)[C@]1(C[C@H]1c1ccc3c(/C=C/c4ccc(CN5CCOCC5)cc4)n[nH]c3c1)C(=O)N2 (relative stereo) | 8800 | 80 | 30 | 560 |  |  |  |  |  |  |  |  | 
7 | COc1ccc2c(c1)[C@]1(C[C@H]1c1ccc3c(/C=C/c4cc(F)c(CN5CCOCC5)c(F)c4)n[nH]c3c1)C(=O)N2 (relative stereo) | 3700 | 50 | 60 | 1700 | 7900 |  |  |  |  |  |  |  | 
8 | CN1CCN(Cc2ccc(/C=C/c3n[nH]c4cc([C@@H]5C[C@@]56C(=O)Nc5ccccc56)ccc34)cc2)CC1 (relative stereo) | 6000 | 10 | 10 | 2500 | 120 | 190 | > 1000 | > 1000 | 580 | > 1000 | > 10000 | > 10000 | 120
9 | O=C1Nc2ccccc2[C@]12C[C@H]2c1ccc2c(/C=C/c3ccc(CN4CCCC4)cc3)n[nH]c2c1 (relative stereo) | 4100 | 50 | < 10 | 1900 |  |  |  |  |  |  |  |  | 
10 | O=C1Nc2ccccc2[C@]12C[C@H]2c1ccc2c(/C=C/c3ccc(CN4CCCCC4)cc3)n[nH]c2c1 (relative stereo) | 800 | 600 | 500 | 900 | 12 |  |  |  |  |  |  |  | 
11 | CNC(=O)c1ccccc1Sc1ccc2c(/C=C/c3ccccn3)n[nH]c2c1 [AXITINIB] | 4600 | 2300 | 2800 |  |  |  |  |  |  |  |  |  | 
